Measurements: the supplement of paper PMC10627819

Columns and labels:
B. subtilis 168 [1] = assay: fitness (endpoint OD595 vs no drug) (fraction); higher = more growth
In short: (§1)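 Fitness is computed from the optical density at which cultures reach stationary phase, divided by the robust mean of no-drug control wells. Any value above 1 is set to 1. Cultures started at OD595 0.01 in 384-well plates with TSB, LB Lennox or CY at 37 °C, and OD595 was read every 30 min for 14 h against a first-reading background.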

S. aureus DSM 20231 [2] = assay: as above
In short: as §1

S. aureus Newman [3] = assay: as above
In short: as §1

S. pneumoniae D39V [4] = assay: as above
In short: as §1

B. subtilis 168 [5] = assay: Bliss interaction score (quartile over a dose matrix) (fitness difference); higher = more antagonism (negative = synergy)
In short: (§2)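 The Bliss score takes observed fitness and subtracts the expected fitness, calculated as a product of single-drug fitness values. Those single-drug values were inferred from the combination data. Fitness is OD595 at entry into stationary phase divided by the plate's robust no-drug mean, capped at 1, and the score is summarised by quartiles across technical, biological and donor/recipient replicates.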

S. aureus DSM 20231 [6] = assay: as above
In short: as §2

S. aureus Newman [7] = assay: as above
In short: as §2

S. pneumoniae D39V [8] = assay: as above
In short: as §2
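Throughout, for Bliss interaction score (quartile over a dose matrix): first quartile when negative (synergy) and third quartile when positive (antagonism).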
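Throughout, for fitness (endpoint OD595 vs no drug): OD595 on entry to stationary phase over no-drug wells; at most 1.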

CCCCCCCCCC(=O)N[C@@H](Cc1c[nH]c2ccccc12)C(=O)N[C@H](CC(N)=O)C(=O)N[C@@H](CC(=O)O)C(=O)N[C@@H]1C(=O)NCC(=O)N[C@@H](CCCN)C(=O)N[C@@H](CC(=O)O)C(=O)N[C@H](C)C(=O)N[C@@H](CC(=O)O)C(=O)NCC(=O)N[C@H](CO)C(=O)N[C@@H]([C@H](C)CC(=O)O)C(=O)N[C@@H](CC(=O)c2ccccc2N)C(=O)O[C@@H]1C [Daptomycin] + CN1C2=CC=CC=C2N=C3C1=CC=CC3=O [Pyocyanin]
fitness
Conditions | first compound 0.125 µg/mL | first compound 0.25 µg/mL | first compound 0.5 µg/mL | first compound 1 µg/mL | first compound 2 µg/mL | first compound 4 µg/mL
B. subtilis 168 [1], partner 1.25 µg/mL | 0.868 | 0.89 | 0.846 | – | – | –
B. subtilis 168 [1], partner 2.5 µg/mL | 0.846 | 0.817 | 0.803 | – | – | –
B. subtilis 168 [1], partner 5 µg/mL | 0.718 | 0.755 | 0.679 | – | – | –
S. aureus DSM 20231 [2], partner 1.25 µg/mL | – | – | 0.891 | 0.969 | 0.727 | –
S. aureus DSM 20231 [2], partner 2.5 µg/mL | – | – | 0.936 | 0.974 | 0.737 | –
S. aureus DSM 20231 [2], partner 5 µg/mL | – | – | 0.627 | 0.707 | 0.639 | –
S. aureus Newman [3], partner 1.25 µg/mL | 0.871 | 0.874 | 0.904 | – | – | –
S. aureus Newman [3], partner 2.5 µg/mL | 0.839 | 0.857 | 0.855 | – | – | –
S. pneumoniae D39V [4], partner 0.325 µg/mL | – | – | – | ≥ 1 | ≥ 1 | 0.994
S. pneumoniae D39V [4], partner 0.65 µg/mL | – | – | – | 0.905 | 0.944 | 0.931
S. pneumoniae D39V [4], partner 1.3 µg/mL | – | – | – | 0.615 | 0.604 | 0.582

fitness, one replicate
Conditions | partner 1.25 µg/mL | partner 2.5 µg/mL | partner 5 µg/mL
B. subtilis 168 [1], first compound 1 µg/mL | 0.697 | 0.652 | 0.552
S. aureus DSM 20231 [2], first compound 0.125 µg/mL | 0.798 | 0.814 | 0.577
S. aureus DSM 20231 [2], first compound 0.25 µg/mL | 0.86 | 0.938 | 0.581

Conditions | Bliss interaction score
B. subtilis 168 [5] | -0.0565
S. aureus DSM 20231 [6] | -0.0886
S. aureus Newman [7] | 0.0899
S. pneumoniae D39V [8] | -0.0802

CCCCCCCCCC(=O)N[C@@H](Cc1c[nH]c2ccccc12)C(=O)N[C@H](CC(N)=O)C(=O)N[C@@H](CC(=O)O)C(=O)N[C@@H]1C(=O)NCC(=O)N[C@@H](CCCN)C(=O)N[C@@H](CC(=O)O)C(=O)N[C@H](C)C(=O)N[C@@H](CC(=O)O)C(=O)NCC(=O)N[C@H](CO)C(=O)N[C@@H]([C@H](C)CC(=O)O)C(=O)N[C@@H](CC(=O)c2ccccc2N)C(=O)O[C@@H]1C [Daptomycin] + CN[C@H](CC(C)C)C(=O)N[C@H]1C(=O)N[C@@H](CC(N)=O)C(=O)N[C@H]2C(=O)N[C@H]3C(=O)N[C@H](C(=O)N[C@H](C(=O)O)c4cc(O)cc(O)c4-c4cc3ccc4O)[C@H](O)c3ccc(c(Cl)c3)Oc3cc2cc(c3O[C@@H]2O[C@H](CO)[C@@H](O)[C@H](O)[C@H]2O[C@H]2C[C@](C)(N)[C@H](O)[C@H](C)O2)Oc2ccc(cc2Cl)[C@H]1O [Vancomycin]
fitness, S. aureus DSM 20231 [2], one replicate
Conditions | partner 0.1875 µg/mL | partner 0.375 µg/mL | partner 0.75 µg/mL
first compound 0.125 µg/mL | 0.901 | ≥ 1 | ≥ 1
first compound 0.25 µg/mL | 0.853 | ≥ 1 | ≥ 1

Conditions | fitness
S. aureus DSM 20231 [2], first compound 0.5 µg/mL, partner 0.1875 µg/mL | ≥ 1
S. aureus DSM 20231 [2], first compound 0.5 µg/mL, partner 0.375 µg/mL | ≥ 1
S. aureus DSM 20231 [2], first compound 0.5 µg/mL, partner 0.75 µg/mL | ≥ 1
S. aureus DSM 20231 [2], first compound 1 µg/mL, partner 0.1875 µg/mL | ≥ 1
S. aureus DSM 20231 [2], first compound 1 µg/mL, partner 0.375 µg/mL | ≥ 1
S. aureus DSM 20231 [2], first compound 1 µg/mL, partner 0.75 µg/mL | ≥ 1
S. aureus DSM 20231 [2], first compound 2 µg/mL, partner 0.1875 µg/mL | 0.906
S. aureus DSM 20231 [2], first compound 2 µg/mL, partner 0.375 µg/mL | 0.975
S. aureus DSM 20231 [2], first compound 2 µg/mL, partner 0.75 µg/mL | 0.935
S. aureus Newman [3], first compound 0.125 µg/mL, partner 0.1875 µg/mL | ≥ 1
S. aureus Newman [3], first compound 0.125 µg/mL, partner 0.375 µg/mL | ≥ 1
S. aureus Newman [3], first compound 0.125 µg/mL, partner 0.75 µg/mL | 0.973
S. aureus Newman [3], first compound 0.25 µg/mL, partner 0.1875 µg/mL | ≥ 1
S. aureus Newman [3], first compound 0.25 µg/mL, partner 0.375 µg/mL | 0.998
S. aureus Newman [3], first compound 0.25 µg/mL, partner 0.75 µg/mL | 0.985
S. aureus Newman [3], first compound 0.5 µg/mL, partner 0.1875 µg/mL | 0.988
S. aureus Newman [3], first compound 0.5 µg/mL, partner 0.375 µg/mL | ≥ 1
S. aureus Newman [3], first compound 0.5 µg/mL, partner 0.75 µg/mL | 0.952
S. pneumoniae D39V [4], first compound 1 µg/mL, partner 0.03125 µg/mL | 0.921
S. pneumoniae D39V [4], first compound 1 µg/mL, partner 0.0625 µg/mL | 0.841
S. pneumoniae D39V [4], first compound 1 µg/mL, partner 0.25 µg/mL | 0.116
S. pneumoniae D39V [4], first compound 1 µg/mL, partner 0.5 µg/mL | 0.0905
S. pneumoniae D39V [4], first compound 2 µg/mL, partner 0.03125 µg/mL | 0.915
S. pneumoniae D39V [4], first compound 2 µg/mL, partner 0.0625 µg/mL | 0.885
S. pneumoniae D39V [4], first compound 2 µg/mL, partner 0.125 µg/mL | 0.915
S. pneumoniae D39V [4], first compound 2 µg/mL, partner 0.25 µg/mL | 0.103
S. pneumoniae D39V [4], first compound 2 µg/mL, partner 0.5 µg/mL | 0.094
S. pneumoniae D39V [4], first compound 4 µg/mL, partner 0.03125 µg/mL | 0.938
S. pneumoniae D39V [4], first compound 4 µg/mL, partner 0.0625 µg/mL | 0.898
S. pneumoniae D39V [4], first compound 4 µg/mL, partner 0.125 µg/mL | 0.904
S. pneumoniae D39V [4], first compound 4 µg/mL, partner 0.25 µg/mL | 0.184
S. pneumoniae D39V [4], first compound 4 µg/mL, partner 0.5 µg/mL | 0.0719

Conditions | Bliss interaction score
B. subtilis 168 [5] | 0.0914
S. aureus DSM 20231 [6] | 0.05
S. aureus Newman [7] | 0.0383
S. pneumoniae D39V [8] | 0.0724
